{"source": "patent US20210386729A1", "about": "“METHODS FOR TREATING LIVER DISORDERS USING FXR AGONISTS” (NOVARTIS AG, priority 2016, published 2021)", "origin": "cited, not measured here", "conditions": "clinical studies, PBC or NASH subjects; cited from earlier work", "data": [{"smiles": "CC[C@H]1[C@@H](O)[C@@H]2[C@H](CC[C@]3(C)[C@@H]([C@H](C)CCC(=O)O)CC[C@@H]23)[C@@]2(C)CC[C@@H](O)C[C@@H]12", "note": "[OCA, 6α-ethyl-chenodeoxycholic acid]", "values": [{"measurement": "pruritus", "result": "may be associated with increased pruritus"}]}]}
